In PubChem BioAssay (NCI) one finds TGI data, which are given here for 7 compounds.

Each structure is given as a SMILES string.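 Compound exposure: 48 hours, 5 concentrations, 96-well plates. At the TGI there is no net growth.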

Among the test systems are MDA-MB-435; SNB-75 CNS; MCF7 breast; COLO 205 colon; RPMI-8226 leukemia; HOP-62 NSCLC; NCI-H226 lung; MALME-3M melanoma; NCI-H23 lung; BT-549 breast; K-562 leukemia; SK-OV-3 ovarian; SNB-19 CNS; ACHN renal; OVCAR-3 ovarian; T-47D breast; SF-295 CNS; SF-539 CNS; HS 578T breast; HT29 colon.
Assay in all cases: growth of human tumour cells (NCI), 48 h

Turning to `Cc1nn(C(=O)c2ccc(Cl)cc2)c2c1C(c1cccc([N+](=O)[O-])c1)SC(N)=N2` (stereo not given), the TGI in the assay with MDA-MB-435, with SNB-75 CNS, in the assay with MCF7 breast, with COLO 205 colon, with RPMI-8226 leukemia and in the assay with HOP-62 NSCLC was above 10 µM each time. Besides, the TGI in the assay on NCI-H226 lung, in the assay with MALME-3M melanoma, in the assay with NCI-H23 lung, in the assay with BT-549 breast, with K-562 leukemia and with SK-OV-3 ovarian was above 10 µM throughout. Moreover, the TGI with SNB-19 CNS, with ACHN renal, in the assay with OVCAR-3 ovarian, in the assay with T-47D breast, in the assay on SF-295 CNS and in the assay on SF-539 CNS was above 10 µM throughout. In addition, the TGI in the assay with HS 578T breast and in the assay with HT29 colon was above 10 µM in each case.
On to `N/C(=N\N=C\c1c[nH]c2cc(C(F)(F)F)ccc2c1=O)NO`, for which the TGI was above 10 µM in the assay with MDA-MB-435; 9.03 µM with SNB-75 CNS; above 10 µM in the assay with MCF7 breast; above 10 µM in the assay with COLO 205 colon; above 10 µM in the assay with RPMI-8226 leukemia; above 10 µM in the assay on HOP-62 NSCLC. In addition, the TGI with NCI-H226 lung, with MALME-3M melanoma, in the assay on NCI-H23 lung, with BT-549 breast, in the assay with K-562 leukemia and in the assay on SK-OV-3 ovarian was above 10 µM in each case. The TGI in the assay with SNB-19 CNS, in the assay with ACHN renal, in the assay with OVCAR-3 ovarian, in the assay on T-47D breast, with SF-295 CNS and in the assay on SF-539 CNS was above 10 µM in each case. Moreover, the TGI in the assay with HS 578T breast and in the assay with HT29 colon was above 10 µM each time.
With `CO/N=C(/C(=O)N(C(=O)/C(=N/OC)c1csc(NC(c2ccccc2)(c2ccccc2)c2ccccc2)n1)n1cnn(CC(=O)OC(C)(C)C)c1=O)c1csc(NC(c2ccccc2)(c2ccccc2)c2ccccc2)n1`, the TGI in the assay with MDA-MB-435, in the assay on SNB-75 CNS, with MCF7 breast, in the assay on COLO 205 colon, in the assay with RPMI-8226 leukemia and in the assay on HOP-62 NSCLC was above 10 µM in each case. In addition, the TGI in the assay with NCI-H226 lung is above 10 µM; in the assay on MALME-3M melanoma it was above 10 µM; in the assay on NCI-H23 lung, above 10 µM; with BT-549 breast it was 3.96 µM; in the assay on K-562 leukemia it was above 10 µM; with SK-OV-3 ovarian it was above 10 µM. The TGI with SNB-19 CNS, in the assay on ACHN renal, with OVCAR-3 ovarian, in the assay with T-47D breast, with SF-295 CNS and in the assay on SF-539 CNS was above 10 µM each time. Moreover, the TGI in the assay on HS 578T breast and with HT29 colon was above 10 µM in each case.
For `O=C(c1ccc2ccccc2c1)N(Cc1cccnc1)C(=S)N(Cc1cccnc1)C(=O)c1ccc2ccccc2c1`, the TGI with MDA-MB-435 is above 100 µM; in the assay with SNB-75 CNS, 53.5 µM; in the assay on MCF7 breast, above 100 µM; in the assay on COLO 205 colon, 75.1 µM; in the assay on RPMI-8226 leukemia, above 100 µM; with HOP-62 NSCLC it was 55.2 µM. The TGI in the assay with NCI-H226 lung was above 100 µM; with MALME-3M melanoma, above 100 µM; in the assay with NCI-H23 lung, 63.7 µM; in the assay with BT-549 breast, 38.6 µM; in the assay on K-562 leukemia, above 100 µM; in the assay on SK-OV-3 ovarian, above 100 µM. The TGI in the assay with SNB-19 CNS is above 100 µM; in the assay with ACHN renal, above 100 µM; in the assay on OVCAR-3 ovarian, 42.7 µM; with T-47D breast, 65.8 µM; in the assay on SF-295 CNS it was above 100 µM; in the assay on SF-539 CNS, above 100 µM. The TGI in the assay with HS 578T breast was above 100 µM; with HT29 colon, 81.2 µM.
Turning to `O=C(NNc1ccnc2cc(Cl)ccc12)/C(=C\c1ccccc1Cl)NC(=O)c1ccccc1`, the TGI with MDA-MB-435 was above 100 µM; with SNB-75 CNS it was above 100 µM; in the assay on MCF7 breast, 46.1 µM; in the assay with COLO 205 colon it was 81.8 µM; in the assay on RPMI-8226 leukemia, above 100 µM; with HOP-62 NSCLC, 48.6 µM. The TGI is 67.6 µM with NCI-H226 lung; above 100 µM with MALME-3M melanoma; above 100 µM with NCI-H23 lung; 87.8 µM with BT-549 breast; above 100 µM with K-562 leukemia; above 100 µM with SK-OV-3 ovarian. For the same compound, the TGI in the assay on SNB-19 CNS was above 100 µM; with ACHN renal, above 100 µM; in the assay on OVCAR-3 ovarian, 38.2 µM; in the assay on T-47D breast it was above 100 µM; in the assay on SF-295 CNS it was 96.1 µM; with SF-539 CNS, 72.7 µM. The TGI with HS 578T breast and with HT29 colon was above 100 µM in each case.
With `O=C1c2ccccc2-c2c1c(-c1ccc([N+](=O)[O-])cc1)nc1ccc3ccccc3c21`, the TGI in the assay with MDA-MB-435, in the assay with SNB-75 CNS, in the assay with MCF7 breast, with COLO 205 colon, in the assay with RPMI-8226 leukemia and with HOP-62 NSCLC was above 100 µM throughout. The TGI in the assay with NCI-H226 lung, in the assay with MALME-3M melanoma, in the assay on NCI-H23 lung, in the assay on BT-549 breast, in the assay with K-562 leukemia and in the assay on SK-OV-3 ovarian was above 100 µM each time. For the same compound, the TGI in the assay on SNB-19 CNS, with ACHN renal, in the assay with OVCAR-3 ovarian, in the assay with T-47D breast, with SF-295 CNS and in the assay with SF-539 CNS was above 100 µM in each case. Also, the TGI in the assay with HS 578T breast and in the assay with HT29 colon was above 100 µM each time.
`Cc1nc2ccccc2c(=O)n1NC(=O)c1ccc([N+](=O)[O-])cc1`: the TGI in the assay with MDA-MB-435, in the assay on SNB-75 CNS, in the assay with MCF7 breast, in the assay with COLO 205 colon, in the assay on RPMI-8226 leukemia and with HOP-62 NSCLC was above 100 µM throughout. The TGI in the assay on NCI-H226 lung, in the assay on MALME-3M melanoma, with NCI-H23 lung, in the assay with BT-549 breast, in the assay on K-562 leukemia and in the assay on SK-OV-3 ovarian was above 100 µM in each case. The TGI with SNB-19 CNS, in the assay on ACHN renal, in the assay on OVCAR-3 ovarian, in the assay with T-47D breast, in the assay with SF-295 CNS and in the assay with SF-539 CNS was above 100 µM in each case. Besides, the TGI in the assay on HS 578T breast and with HT29 colon was above 100 µM in each case.
